Values quoted from earlier work in patent publication US12514855B2 (IRR, Inc., priority 2020, dated 2026).

Tests used:
[1] = with warfarin, theophylline, digoxin, terfenadine, oral contraceptives, or prednisone
[2] = in vivo
[3] = tested on: human rhinovirus (HRV)
[4] = in vivo; remark: listed apart in the source
[5] = molecular target: H1 receptor (Homo sapiens, UniProt P35367); conditions: in an acidic pH
[6] = tested on: histamine induced wheal and flare
[7] = airway epithelial cells from nose and lung

Chain of H1 receptor (P35367 whole entry): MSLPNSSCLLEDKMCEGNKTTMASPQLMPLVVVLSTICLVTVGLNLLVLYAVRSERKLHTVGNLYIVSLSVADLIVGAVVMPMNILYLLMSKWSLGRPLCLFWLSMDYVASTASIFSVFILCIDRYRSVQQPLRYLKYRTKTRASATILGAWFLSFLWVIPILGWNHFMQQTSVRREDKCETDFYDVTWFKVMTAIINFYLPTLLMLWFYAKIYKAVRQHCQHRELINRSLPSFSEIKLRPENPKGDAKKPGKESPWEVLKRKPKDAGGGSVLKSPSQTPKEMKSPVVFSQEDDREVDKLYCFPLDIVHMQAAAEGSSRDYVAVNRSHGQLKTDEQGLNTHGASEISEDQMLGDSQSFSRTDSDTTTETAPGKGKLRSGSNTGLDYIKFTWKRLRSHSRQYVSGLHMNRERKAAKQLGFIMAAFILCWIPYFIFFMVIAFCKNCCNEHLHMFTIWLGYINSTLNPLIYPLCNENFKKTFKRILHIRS

SMILES: CC(C)(O)c1ccccc1CC[C@@H](SCC1(CC(=O)O)CC1)c1cccc(/C=C/c2ccc3ccc(Cl)cc3n2)c1 [montelukast]
- drug interactions [1]: no drug interactions

SMILES: O=C(O)COCCN1CCN([C@H](c2ccccc2)c2ccc(Cl)cc2)CC1 [levocetirizine]
- dose that can be safely administered [2]: up to 30 mg/day
- HRV viral replication [3, 7]: inhibit
- HRV-induced ICAM-1 [3, 7]: inhibit
- HRV-induced cytokine expression [3, 7]: inhibit
- levels of HRV-induced increases in ICAM-1 ([3]; levocetirizine added before, after, or at the time of the HRV infection): reduced
- time to steady state level [4]: 40 h
- receptor affinity over first generation mepyramine [5]: 5 ×
- potency through histamine induced wheal and flare data ([6]; compared with modern generation antihistamines): most potent of the five modern generation antihistamines
- effectiveness versus fexofenadine ([6]; levocetirizine 5 mg per day vs fexofenadine 180 mg per day): more effective than fexofenadine
